Columns and labels:
Rattus norvegicus [1] = experiment: Antiinflammatory activity in allergen challenged Brown-Norway rat assessed as inhibition of total BAL cell administered via nose as dry powder; format: functional
Rattus norvegicus [2] = experiment: Toxicity in ip dosed Brown-Norway rat assessed as decrease in thymus weight administered for 3 days; format: organism-based; details: in vivo, 72 h
Rattus norvegicus [3] = experiment: Toxicity in ip dosed Brown-Norway rat assessed as decrease in adrenal weight administered for 3 days; format: organism-based; details: in vivo, 72 h
Rattus norvegicus [4] = experiment: Toxicity in ip dosed Brown-Norway rat assessed as decrease in body weight administered for 3 days; format: organism-based; details: in vivo, 72 h
Rattus norvegicus [5] = experiment: Antiinflammatory activity in intratracheal insufflated allergen challenged Brown-Norway rat assessed as inhibition of inflammatory cell influx administered as single dose; format: functional; details: inhaled or nasal
[6] = biological target: T1, Glucocorticoid receptor (Homo sapiens) (UniProt P04150); experiment: Transactivation activity at glucocorticoid receptor in human HepG2 cells assessed as induction of tyrosine amino transferase at 1 uM relative to control; format: cell-based
T1 sequence (whole entry): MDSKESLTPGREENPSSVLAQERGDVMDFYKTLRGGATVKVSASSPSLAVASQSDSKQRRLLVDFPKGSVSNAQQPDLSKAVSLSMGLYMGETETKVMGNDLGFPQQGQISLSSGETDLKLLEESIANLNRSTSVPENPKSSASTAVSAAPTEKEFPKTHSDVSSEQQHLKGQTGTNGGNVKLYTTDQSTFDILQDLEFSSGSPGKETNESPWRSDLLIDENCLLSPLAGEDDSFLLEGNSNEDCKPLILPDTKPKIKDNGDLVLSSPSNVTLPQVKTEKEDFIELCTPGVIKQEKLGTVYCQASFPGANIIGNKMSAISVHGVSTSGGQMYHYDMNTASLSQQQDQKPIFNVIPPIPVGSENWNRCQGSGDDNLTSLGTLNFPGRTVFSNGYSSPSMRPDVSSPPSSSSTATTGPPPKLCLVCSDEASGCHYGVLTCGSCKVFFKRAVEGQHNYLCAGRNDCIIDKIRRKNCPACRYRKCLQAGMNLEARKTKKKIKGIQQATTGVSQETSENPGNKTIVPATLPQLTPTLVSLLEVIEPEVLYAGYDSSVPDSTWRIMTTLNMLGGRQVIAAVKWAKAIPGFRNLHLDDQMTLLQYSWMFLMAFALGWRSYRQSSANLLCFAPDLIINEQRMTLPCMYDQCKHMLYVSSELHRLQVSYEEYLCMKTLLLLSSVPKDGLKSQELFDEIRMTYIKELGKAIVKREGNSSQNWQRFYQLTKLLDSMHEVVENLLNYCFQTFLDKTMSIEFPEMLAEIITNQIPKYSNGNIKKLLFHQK

[7] = biological target: T2, Glucocorticoid receptor (Rattus norvegicus) (UniProt P06536); experiment: Transactivation activity at glucocorticoid receptor in rat H4II-E cells assessed as induction of tyrosine amino transferase at 1 uM relative to control; format: cell-based
T2 sequence (whole entry): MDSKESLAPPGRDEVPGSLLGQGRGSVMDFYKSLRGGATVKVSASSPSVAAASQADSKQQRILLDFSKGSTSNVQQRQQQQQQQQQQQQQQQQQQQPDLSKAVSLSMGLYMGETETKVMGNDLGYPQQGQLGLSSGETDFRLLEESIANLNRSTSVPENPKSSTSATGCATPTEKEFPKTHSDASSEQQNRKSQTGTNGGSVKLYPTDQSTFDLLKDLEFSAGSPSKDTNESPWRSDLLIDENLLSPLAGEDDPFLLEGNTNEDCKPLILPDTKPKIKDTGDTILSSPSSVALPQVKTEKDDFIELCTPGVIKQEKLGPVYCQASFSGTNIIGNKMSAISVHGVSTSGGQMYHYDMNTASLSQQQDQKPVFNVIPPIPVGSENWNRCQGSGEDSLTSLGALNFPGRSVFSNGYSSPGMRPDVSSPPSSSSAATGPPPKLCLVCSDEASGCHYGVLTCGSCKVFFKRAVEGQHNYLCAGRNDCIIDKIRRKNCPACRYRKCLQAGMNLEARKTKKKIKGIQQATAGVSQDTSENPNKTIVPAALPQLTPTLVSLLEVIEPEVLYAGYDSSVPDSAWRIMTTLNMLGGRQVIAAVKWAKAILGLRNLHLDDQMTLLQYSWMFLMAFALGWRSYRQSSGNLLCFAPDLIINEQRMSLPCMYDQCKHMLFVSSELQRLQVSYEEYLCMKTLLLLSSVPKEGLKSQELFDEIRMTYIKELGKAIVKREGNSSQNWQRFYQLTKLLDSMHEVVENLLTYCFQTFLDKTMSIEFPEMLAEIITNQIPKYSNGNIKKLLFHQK

Glucocorticoid receptor [8] = biological target: T3, Glucocorticoid receptor (Homo sapiens, UniProt P04150); experiment: Inhibition of human glucocorticoid receptor
T3 sequence (P04150 whole entry): T1 sequence (whole entry)

[9] = biological target: T1, Glucocorticoid receptor (Homo sapiens); experiment: Transrepression activity at glucocorticoid receptor in human H292 cells assessed as inhibition of TNF-stimulated IL-6 cytokine synthesis at 1 uM relative to control; format: cell-based
Glucocorticoid receptor [10] = biological target: T3, Glucocorticoid receptor; experiment: Transrepression activity at glucocorticoid receptor in human H292 cells assessed as inhibition of TNF-stimulated IL-6 cytokine synthesis; format: cell-based
[11] = biological target: T1, Glucocorticoid receptor (Homo sapiens); experiment: Transactivation activity at glucocorticoid receptor in human HepG2 cells expressing luciferase-taggged GRE gene at 1 uM by luciferase reporter gene assay relative to control; format: cell-based
Lung = experiment: Drug uptake in lung of Brown-Norway rat; format: ADME, tissue-based; details: in vivo
Glucocorticoid receptor [12] = biological target: T3, Glucocorticoid receptor; experiment: Transactivation activity at glucocorticoid receptor in human HepG2 cells expressing luciferase-taggged GRE gene by luciferase reporter gene assay; format: cell-based
Glucocorticoid receptor [13] = biological target: T3, Glucocorticoid receptor; experiment: Transactivation activity at glucocorticoid receptor in human HepG2 cells assessed as induction of tyrosine amino transferase; format: cell-based
Glucocorticoid receptor [14] = biological target: T4, Glucocorticoid receptor (Rattus norvegicus, UniProt P06536); experiment: Transactivation activity at glucocorticoid receptor in rat H4II-E cells assessed as induction of tyrosine amino transferase; format: cell-based
T4 sequence (P06536 whole entry): T2 sequence (whole entry)

Rattus norvegicus [15] = experiment: Induction of thymolysis in ovalbumin-challenged Brown-Norway rat at upto 730 ug/kg administered via nose inhalation; format: organism-based; details: in vivo, 0.73 mg/kg
[16] = Therapeutic index, ratio of ED20 for thymolysis to ED70 for forced vital capacity in ovalbumin-challenged Brown-Norway rat; format: organism-based; details: in vivo, read-out: TI
Rattus norvegicus [17] = organism: Rattus norvegicus; experiment: Ratio of fluticasone propionate TI to compound TI in ovalbumin-challenged Brown-Norway rat
[18] = AUC in rat at 10 mg/kg, po; format: ADME, organism-based; design: dose 10 mg/kg, route oral; details: plasma

Row | SMILES | Emax [6] [%] | Emax [7] [%] | IC50 (Glucocorticoid receptor [8]) [nM] | Emax [9] [%] | IC50 (Glucocorticoid receptor [10]) [nM] | Emax [11] [%] | EC50 (Glucocorticoid receptor [12]) [nM] | other results
1 | C[C@]12CCC(=O)C=C1CC[C@@H]1[C@@H]2[C@@H](O)C[C@@]2(C)[C@H]1CC[C@]2(O)C(=O)CSc1nc2ccccc2s1 | 5 | 0 | 4.8 | 97 | 36 | 30 |  | inhibition (INH) (Rattus norvegicus [1]): 27%; ED50 (Rattus norvegicus [2]): > 100 mg/kg; ED50 (Rattus norvegicus [3]): > 100 mg/kg; ED50 (Rattus norvegicus [4]): > 100 mg/kg; ED50 (Rattus norvegicus [5]): 0.42 mg/kg; Drug uptake (Lung): 85 µg/kg
2 | C[C@]12CCC(=O)C=C1CC[C@H]1[C@@H]3CC[C@](O)(C(=O)CSc4nc5ccccc5s4)[C@@]3(C)C[C@H](O)[C@@]12F |  | 21 | 4.6 | 95 | 18.8 | 63 | 535 | 
3 | C[C@@H]1C[C@H]2[C@@H]3CCC4=CC(=O)C=C[C@]4(C)[C@@]3(Cl)[C@@H](O)C[C@]2(C)[C@@]1(O)C(=O)CSc1nc2ccccc2s1 |  | 29 | 17 | 88 | 4.95 | 60 | 50 | 
4 | C[C@]12C=CC(=O)C=C1CC[C@@H]1[C@@H]2[C@@H](O)C[C@@]2(C)[C@H]1CC[C@]2(OC(=O)c1ccco1)C(=O)CSc1nc2ccccc2s1 | 43 | 62 |  | 99 | 0.75 | 93 | 14.1 | EC50 (Glucocorticoid receptor [13]): 50.8 nM; EC50 (Glucocorticoid receptor [14]): 18.7 nM
5 | C[C@]12CCC(=O)C=C1CC[C@@H]1[C@@H]2[C@@H](O)C[C@@]2(C)[C@H]1CC[C@]2(OC(=O)c1ccco1)C(=O)CSc1nc2ccccc2o1 | 53 | 9 |  | 97 | 2.2 |  |  | EC50 (Glucocorticoid receptor [13]): 55.6 nM
6 | Cc1ccnc(SCC(=O)[C@@]2(OC(=O)c3ccco3)CC[C@H]3[C@@H]4CCC5=CC(=O)C=C[C@]5(C)[C@H]4[C@@H](O)C[C@@]32C)n1 | 43 | 24 |  | 98 | 2.1 | 97 | 13.3 | 
7 | C[C@@H]1C[C@H]2[C@@H]3CCC4=CC(=O)C=C[C@]4(C)[C@@]3(F)[C@@H](O)C[C@]2(C)[C@@]1(O)C(=O)CSc1nc2ccccc2s1 |  | 33 | 18 | 98 | 4.4 | 68 | 45.5 | 
8 | CCC(=O)OCC(=O)[C@@]1(OC(=O)CC)[C@@H](C)C[C@H]2[C@@H]3CCC4=CC(=O)C=C[C@]4(C)[C@@]3(Cl)[C@@H](O)C[C@@]21C [BECLOMETHASONE DIPROPIONATE] |  |  |  |  |  |  |  | selectivity ratio [16]: 1
9 | C[C@]12C=CC(=O)C=C1CC[C@@H]1[C@@H]2[C@@H](O)C[C@@]2(C)[C@H]1CC[C@]2(OC(=O)c1ccco1)C(=O)CSc1nccc2ccccc12 | 24 | 32 |  | 96 | 2.1 | 73 | 17.3 | 
10 | C[C@@H]1C[C@H]2[C@@H]3C[C@H](F)C4=CC(=O)C=C[C@]4(C)[C@@]3(F)[C@@H](O)C[C@]2(C)[C@@]1(O)C(=O)CSc1nc2ccccc2s1 |  | 79 | 13 | 100 | 1.9 | 66 | 17 | EC50 (Glucocorticoid receptor [14]): 27 nM
11 | C[C@]12CCC(=O)C=C1CC[C@@H]1[C@@H]2[C@@H](O)C[C@@]2(C)[C@H]1CC[C@]2(OC(=O)c1ccco1)C(=O)CSc1cnc2ccccc2n1 | 41 | 9 |  | 98 | 1.4 |  |  | 
12 | C[C@]12C=CC(=O)C=C1CC[C@@H]1[C@@H]2[C@@H](O)C[C@@]2(C)[C@H]1CC[C@]2(O)C(=O)CSc1nc2ccccc2s1 |  | 19 | 3.8 | 78 | 35 | 29 |  | 
13 | CCCC1O[C@@H]2C[C@H]3[C@@H]4CCC5=CC(=O)C=C[C@]5(C)[C@H]4[C@@H](O)C[C@]3(C)[C@]2(C(=O)CO)O1 (some centres not stated) [BUDESONIDE] |  |  |  |  |  |  |  | selectivity ratio [16]: 1
14 | C[C@H]1C[C@@H]2[C@H]([C@@H](O)C[C@@]3(C)[C@H]2CC[C@]3(O)C(=O)CSc2nc3ccccc3s2)[C@@]2(C)C=CC(=O)C=C12 |  | 34 | 18 | 95 | 39.1 | 55 | 295 | 

More lines, in order of falling IC50 (Glucocorticoid receptor [10]), values ahead:

Row | Emax [6] [%] | Emax [7] [%] | IC50 (Glucocorticoid receptor [8]) [nM] | Emax [9] [%] | IC50 (Glucocorticoid receptor [10]) [nM] | Emax [11] [%] | EC50 (Glucocorticoid receptor [12]) [nM] | SMILES | other results
15 | 33 | 4 |  | 86 | 15.9 |  |  | C[C@]12CCC(=O)C=C1CC[C@@H]1[C@@H]2[C@@H](O)C[C@@]2(C)[C@H]1CC[C@]2(OC(=O)c1ccco1)C(=O)CSc1nccc2ccccc12 | 
16 | 15 | 2 |  | 94 | 14.3 |  |  | C[C@]12CCC(=O)C=C1CC[C@@H]1[C@@H]2[C@@H](O)C[C@@]2(C)[C@H]1CC[C@]2(OC(=O)c1ccco1)C(=O)CSc1nc2ncccc2s1 | 
17 | 35 | 7 |  | 94 | 9.7 |  |  | C[C@]12CCC(=O)C=C1CC[C@@H]1[C@@H]2[C@@H](O)C[C@@]2(C)[C@H]1CC[C@]2(OC(=O)c1ccco1)C(=O)CSc1ncccn1 | 
18 | 39 | 17 |  | 98 | 3.7 |  |  | Cn1c(SCC(=O)[C@@]2(OC(=O)c3ccco3)CC[C@H]3[C@@H]4CCC5=CC(=O)CC[C@]5(C)[C@H]4[C@@H](O)C[C@@]32C)nc2ccccc21 | 
19 | 22 | 11 |  | 96 | 2.85 |  |  | C[C@]12CCC(=O)C=C1CC[C@@H]1[C@@H]2[C@@H](O)C[C@@]2(C)[C@H]1CC[C@]2(OC(=O)c1ccco1)C(=O)CSc1ccc2ccccc2n1 | 
20 | 5 | 2 |  | 100 | 2 |  |  | C[C@]12CCC(=O)C=C1CC[C@@H]1[C@@H]2[C@@H](O)C[C@@]2(C)[C@H]1CC[C@]2(OC(=O)c1ccco1)C(=O)CSc1nc2ccccc2s1 | Activity (Rattus norvegicus [15]): >= 20%; selectivity ratio [16]: > 15; Ratio (Rattus norvegicus [17]): 10; AUC [18]: 7 ng·h/mL
21 | 57 | 12 |  | 100 | 0.9 |  |  | Cc1nc(SCC(=O)[C@@]2(OC(=O)c3ccco3)CC[C@H]3[C@@H]4CCC5=CC(=O)CC[C@]5(C)[C@H]4[C@@H](O)C[C@@]32C)sc1C | EC50 (Glucocorticoid receptor [13]): 22.4 nM

Source: ChEMBL document CHEMBL1914389, “Steroidal C-21 mercapto derivatives as dissociated steroids: discovery of an inhaled dissociated steroid” (Bioorg Med Chem Lett, 2011)
